Laboratory results published in patent US10053457B2, “Hydroxyalkyl-piperazine derivatives as CXCR3 receptor modulators” (IDORSIA PHARMACEUTICALS LTD, priority 2015, dated 2018).

How the values were obtained:
Format in all cases: cell-based
hERG K channel = hERG K channel (Homo sapiens (Human), UniProt Q12809); experiment: hERG Q-Patch assay; details: CHO cells expressing hERG, K+ tail current 3 min after application, mean of two or three experiments
Description: Compounds are evaluated for block of the hERG K channel using CHO cells stably expressing the hERG gene (accession number U04270, bSys, Witterswil, Switzerland) and the QPatch robotic platform (Sophion, Ballerup, Denmark) in single-cell mode at room temperature. Cells are grown in culture flasks at 37° C. in 5% CO2, in culture medium (Ham's F-12 Nutrient Mixture, Invitrogen 21765-029) supplemented with 9% (v/v) fetal calf serum, 0.9% Penicillin/Streptomycin (10,000 U/mL, Invitrogen 15140148), 100 μg/mL Hygromycin B (Invitrogen 10687010). When the cells are ˜80% confluent (every 2-3 days), they are either split for further culture or used for electrophysiology. For further culture, cells are detached with 0.25% Trypsin EDTA solution (Invitrogen 25200-056) and a fraction of the cells (10-30%) is reseeded in culture medium. For electrophysiology, on the experimental day, cells are detached with 0.25% Trypsin EDTA solution and all cells are suspended in suspension medium (293 SFM II, Invitrogen 11686-029) supplemented with 20 mM HEPES and 0.04 mg/mL Trypsin inhibitor. Cells are kept in suspension medium at 32-35° C. in the QPatch robot until use, at which time aliquots are transferred to the extracellular solution (in mM: NaCl 150; KCl 4; CaCl2 1.2; MgCl2 1; HEPES 10; pH 7.4 with NaOH) containing 0.3% v/v DMSO and applied to the test plates. K^+ currents are measured with the patch-voltage-clamp technique in the whole-cell configuration with the internal solution (in mM: KCl, 140; NaCl, 10; MgCl2, 1; HEPES, 10: EGTA, 5; pH=7.2 with KOH). Currents are low-pass filtered using the internal Bessel filter of the QPatch robot with a cut-off frequency of 2 kHz and are digitized at 10 kHz. K^+ tail currents are produced from a holding voltage of −80 mV by a 500-ms depolarization to +20 mV followed by a 500-ms repolarization to −40 mV; tail current amplitudes are measured at the end of the repolarization to −40 mV. The pulse pattern is repeated every 10 sec during the experiment, baseline K^+ current is measured after 3 min in extracellular solution, test-solution containing compound is then applied, and K^+ current in presence of compound is measured 3 minutes after application to the cells. The respective test-solution is prepared by (1) dissolving the test-compound in pure DMSO, (2) diluting this DMSO solution in extracellular solution, and (3) adding further DMSO, such that the final test-solution has a concentration of either 300 nM or 3000 nM of the test-compound and contains 0.3% v/v DMSO. Compound effects are quantified as % block by dividing the current in presence of compound by the baseline current; two or three experiments are performed for each compound and the final value represents the mean of the results of each experiment.

human CXCR3A = human CXCR3A (Homo sapiens (Human), UniProt P49682); experiment: FLIPR assay (CXCL10-induced calcium signal); details: CHO-K1 cells expressing human CXCR3A coupled to Galpha(16); CXCL10 agonist 20 nM; mean values
human CXCR3A, sequence (P49682 whole entry): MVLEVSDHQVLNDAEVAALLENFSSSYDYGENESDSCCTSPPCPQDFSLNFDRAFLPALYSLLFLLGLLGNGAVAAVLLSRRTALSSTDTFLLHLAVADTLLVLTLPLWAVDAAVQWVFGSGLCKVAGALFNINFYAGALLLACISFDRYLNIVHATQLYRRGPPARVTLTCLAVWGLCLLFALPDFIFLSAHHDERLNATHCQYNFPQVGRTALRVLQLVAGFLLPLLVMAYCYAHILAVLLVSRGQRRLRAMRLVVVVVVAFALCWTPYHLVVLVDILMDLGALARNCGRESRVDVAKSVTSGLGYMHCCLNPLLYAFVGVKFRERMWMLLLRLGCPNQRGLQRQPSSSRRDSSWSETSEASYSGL
Excerpt: (§1) In the case where IC50 values have been determined several times for the same compound, mean values are given.

CXCR3 = CXCR3 (Homo sapiens (Human), UniProt P49682); experiment: Receptor internalization assay in human whole blood (CXCR3 surface expression on CD4 positive cells, CXCL10); details: final CXCL10 9 nM, 30 min at 37° C., mean values
CXCR3, sequence (P49682 whole entry): as above
Description: Diluted compounds are then mixed with an equal volume of CXCL10 (Peprotech) diluted in PBS. Anticoagulated venous human whole blood is added to the mixture, which is then incubated in a CO2 incubator at 37° C. to allow for ligand mediated receptor internalization (final CXCL10 concentration is 9 nM). After 30 min, the blood is mixed with fluorescently labeled CXCR3 and CD4 specific antibodies (Becton Dickinson) and incubated on ice for 10 minutes. Samples are then mixed with BD FACS Lysing Solution (Becton Dickinson) in order to eliminate red blood cells. After washing the cells with PBS containing 0.5% BSA, the samples are then analyzed in a flow cytometer (FACS Canto II, Becton Dickinson). For data analysis using FACSDiva software (Becton Dickinson), the mean fluorescence corresponding to CXCR3 cell surface expression was determined on CD4 positive cells. The program GraphPad Prism or similar software is used to fit the data to a single site dose response curve and to calculate IC50 values.
as §1

hERG K channel, sequence (Q12809 whole entry): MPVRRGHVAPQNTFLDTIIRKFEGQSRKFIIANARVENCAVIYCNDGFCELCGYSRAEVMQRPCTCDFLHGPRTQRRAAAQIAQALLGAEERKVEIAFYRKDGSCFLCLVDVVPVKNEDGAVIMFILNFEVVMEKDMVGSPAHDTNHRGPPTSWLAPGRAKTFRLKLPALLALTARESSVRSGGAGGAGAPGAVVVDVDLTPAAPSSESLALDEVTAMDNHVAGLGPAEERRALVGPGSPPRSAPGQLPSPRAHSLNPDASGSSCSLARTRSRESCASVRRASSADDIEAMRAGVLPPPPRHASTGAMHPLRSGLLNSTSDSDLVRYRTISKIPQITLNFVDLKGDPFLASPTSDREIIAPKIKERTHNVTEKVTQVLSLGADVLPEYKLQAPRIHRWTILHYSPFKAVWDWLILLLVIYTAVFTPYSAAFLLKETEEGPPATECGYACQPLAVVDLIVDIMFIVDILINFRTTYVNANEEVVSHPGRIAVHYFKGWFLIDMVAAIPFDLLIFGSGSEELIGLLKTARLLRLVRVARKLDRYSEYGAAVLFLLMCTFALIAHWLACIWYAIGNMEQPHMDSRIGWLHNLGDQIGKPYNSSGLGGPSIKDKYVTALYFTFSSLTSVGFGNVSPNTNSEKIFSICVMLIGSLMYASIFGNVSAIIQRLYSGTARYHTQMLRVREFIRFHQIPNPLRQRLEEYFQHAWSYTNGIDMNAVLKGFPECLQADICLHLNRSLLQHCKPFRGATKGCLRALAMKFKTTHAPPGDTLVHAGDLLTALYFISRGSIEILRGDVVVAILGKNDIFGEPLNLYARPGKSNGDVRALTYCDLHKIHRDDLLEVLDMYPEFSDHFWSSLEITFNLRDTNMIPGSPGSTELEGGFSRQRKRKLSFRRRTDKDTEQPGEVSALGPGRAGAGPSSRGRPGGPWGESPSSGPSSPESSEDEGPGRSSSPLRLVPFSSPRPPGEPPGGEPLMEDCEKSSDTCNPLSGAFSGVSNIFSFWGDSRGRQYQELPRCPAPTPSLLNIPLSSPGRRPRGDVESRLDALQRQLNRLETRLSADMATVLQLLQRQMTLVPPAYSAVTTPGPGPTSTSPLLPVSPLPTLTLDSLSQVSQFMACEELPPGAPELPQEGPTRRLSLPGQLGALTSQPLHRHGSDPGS

For `Cc1ccn(CC(=O)N2CCN(c3sc(C(F)(F)F)nc3-c3cnc(C(F)(F)F)nc3)C[C@H]2CO)n1` [Example 42, 1-{(S)-2-Hydroxymethyl-4-[2-trifluoromethyl-4-(2-trifluoromethyl-pyrimidin-5-yl)-thiazol-5-yl]-piperazin-1-yl}-2-(3-methyl-pyrazol-1-yl)-ethanone], the “% block” value (hERG K channel; concentration 300 nM) was 2%, the “% block” value (hERG K channel; concentration 3000 nM) was 15% and the IC50 (human CXCR3A) was 1 nM. For the same compound, the IC50 (CXCR3) was 59.7 nM.
In the case of `O=C(Cn1ccc(C2CC2)n1)N1CCN(c2sc(C(F)(F)F)nc2-c2cnc(C(F)(F)F)nc2)C[C@H]1CCO` [Example 41, 2-(3-Cyclopropyl-pyrazol-1-yl)-1-{(R)-2-(2-hydroxy-ethyl)-4-[2-trifluoromethyl-4-(2-trifluoromethyl-pyrimidin-5-yl)-thiazol-5-yl]-piperazin-1-yl}-ethanone], the “% block” value (hERG K channel; concentration 300 nM) is reported as 12%, the “% block” value (hERG K channel; concentration 3000 nM) is reported as 60% and the IC50 (human CXCR3A) is reported as 0.45 nM. For the same compound, the IC50 (CXCR3) was 30.2 nM.
With `CC(C)c1ncn(CC(=O)N2CCN(c3sc(C(F)(F)F)nc3-c3cnc(C(F)(F)F)nc3)C[C@H]2CCO)n1` [Example 34, 1-{(R)-2-(2-Hydroxy-ethyl)-4-[2-trifluoromethyl-4-(2-trifluoromethyl-pyrimidin-5-yl)-thiazol-5-yl]-piperazin-1-yl}-2-(3-isopropyl-[1,2,4]triazol-1-yl)-ethanone] the “% block” value (hERG K channel; concentration 300 nM) was 10%, the “% block” value (hERG K channel; concentration 3000 nM) was 34% and the IC50 (human CXCR3A) was 4.5 nM. The IC50 (CXCR3) was 84.8 nM.
`COCc1ncn(CC(=O)N2CCN(c3sc(C(F)(F)F)nc3-c3cnc(C(F)(F)F)nc3)C[C@@H]2CO)n1` [Example 17, 1-{(R)-2-Hydroxymethyl-4-[2-trifluoromethyl-4-(2-trifluoromethyl-pyrimidin-5-yl)-thiazol-5-yl]-piperazin-1-yl}-2-(3-methoxymethyl-[1,2,4]triazol-1-yl)-ethanone] was tested, and the “% block” value (hERG K channel; concentration 300 nM) was 2%, the “% block” value (hERG K channel; concentration 3000 nM) was 6% and the IC50 (human CXCR3A) was 5.9 nM. The IC50 (CXCR3) was 1290 nM.
In the case of `CC(C)c1ncn(CC(=O)N2CCN(c3sc(C(F)(F)F)nc3-c3ccc(C(F)(F)F)nc3)C[C@@H]2CO)n1` [Example 10, 1-{(R)-2-Hydroxymethyl-4-[2-trifluoromethyl-4-(6-trifluoromethyl-pyridin-3-yl)-thiazol-5-yl]-piperazin-1-yl}-2-(3-isopropyl-[1,2,4]triazol-1-yl)-ethanone], the “% block” value (hERG K channel; concentration 300 nM) is reported as 2%, the “% block” value (hERG K channel; concentration 3000 nM) is reported as 12% and the IC50 (human CXCR3A) is reported as 1.1 nM. The IC50 (CXCR3) was 961 nM.
`CCc1ccn(CC(=O)N2CCN(c3sc(C(F)(F)F)nc3-c3cnc(C(F)(F)F)nc3)C[C@H]2CCO)n1` [Example 40, 2-(3-Ethyl-pyrazol-1-yl)-1-{(R)-2-(2-hydroxy-ethyl)-4-[2-trifluoromethyl-4-(2-trifluoromethyl-pyrimidin-5-yl)-thiazol-5-yl]-piperazin-1-yl}-ethanone] was tested, and the “% block” value (hERG K channel; concentration 300 nM) was 5%, the “% block” value (hERG K channel; concentration 3000 nM) was 47% and the IC50 (human CXCR3A) was 1.6 nM. It also gave an IC50 (CXCR3) of 32.7 nM.
In the case of `CC(C)(C)c1ncn(CC(=O)N2CCN(c3sc(C(F)(F)F)nc3-c3cnc(C(F)(F)F)nc3)C[C@H]2CCO)n1` [Example 30, 2-(3-tert-Butyl-[1,2,4]triazol-1-yl)-1-{(R)-2-(2-hydroxy-ethyl)-4-[2-trifluoromethyl-4-(2-trifluoromethyl-pyrimidin-5-yl)-thiazol-5-yl]-piperazin-1-yl}-ethanone], the “% block” value (hERG K channel; concentration 300 nM) is reported as −2%, the “% block” value (hERG K channel; concentration 3000 nM) is reported as 25% and the IC50 (human CXCR3A) is reported as 4.4 nM. The IC50 (CXCR3) was 170 nM.
In the case of `Cc1nc(C)n(CC(=O)N2CCN(c3sc(C(F)(F)F)nc3-c3cnc(C(F)(F)F)nc3)C[C@@H]2CO)n1` [Example 12, 2-(3,5-Dimethyl-[1,2,4]triazol-1-yl)-1-{(R)-2-hydroxymethyl-4-[2-trifluoromethyl-4-(2-trifluoromethyl-pyrimidin-5-yl)-thiazol-5-yl]-piperazin-1-yl}-ethanone], the “% block” value (hERG K channel; concentration 300 nM) is reported as 1%, the “% block” value (hERG K channel; concentration 3000 nM) is reported as 3% and the IC50 (human CXCR3A) is reported as 6.9 nM. It also gave an IC50 (CXCR3) of 324 nM.
`CC(C)c1ncn(CC(=O)N2CCN(c3sc(C(F)(F)F)nc3-c3cnc(C(F)(F)F)nc3)C[C@H]2CO)n1` [Example 4, 1-{(S)-2-Hydroxymethyl-4-[2-trifluoromethyl-4-(2-trifluoromethyl-pyrimidin-5-yl)-thiazol-5-yl]-piperazin-1-yl}-2-(3-isopropyl-[1,2,4]triazol-1-yl)-ethanone] was tested, and the “% block” value (hERG K channel; concentration 300 nM) was 4%, the “% block” value (hERG K channel; concentration 3000 nM) was 13% and the IC50 (human CXCR3A) was 1.8 nM. It also gave an IC50 (CXCR3) of 283 nM.
In the case of `CCOc1ncc(-c2nc(C(F)(F)F)sc2N2CCN(C(=O)Cn3nc(C)nc3C)[C@H](CO)C2)cn1` [Example 7, 2-(3,5-Dimethyl-[1,2,4]triazol-1-yl)-1-{(S)-4-[4-(2-ethoxy-pyrimidin-5-yl)-2-trifluoromethyl-thiazol-5-yl]-2-hydroxymethyl-piperazin-1-yl}-ethanone], the “% block” value (hERG K channel; concentration 300 nM) is reported as 24%, the “% block” value (hERG K channel; concentration 3000 nM) is reported as 45% and the IC50 (human CXCR3A) is reported as 3.1 nM. It also gave an IC50 (CXCR3) of 2270 nM.
For `O=C(Cn1cnc2ccccc21)N1CCN(c2sc(C(F)(F)F)nc2-c2cnc(C(F)(F)F)nc2)C[C@@H]1CO` [Example 13, 2-Benzoimidazol-1-yl-1-{(R)-2-hydroxymethyl-4-[2-trifluoromethyl-4-(2-trifluoromethyl-pyrimidin-5-yl)-thiazol-5-yl]-piperazin-1-yl}-ethanone], the “% block” value (hERG K channel; concentration 300 nM) was 5%, the “% block” value (hERG K channel; concentration 3000 nM) was 17% and the IC50 (human CXCR3A) was 1.2 nM. It also gave an IC50 (CXCR3) of 1050 nM.
For `Cc1ncnn1CC(=O)N1CCN(c2sc(C(F)(F)F)nc2-c2cnc(C(F)(F)F)nc2)C[C@H]1CCO` [Example 36, 1-{(R)-2-(2-Hydroxy-ethyl)-4-[2-trifluoromethyl-4-(2-trifluoromethyl-pyrimidin-5-yl)-thiazol-5-yl]-piperazin-1-yl}-2-(5-methyl-[1,2,4]triazol-1-yl)-ethanone], the “% block” value (hERG K channel; concentration 300 nM) was 10%, the “% block” value (hERG K channel; concentration 3000 nM) was 19% and the IC50 (human CXCR3A) was 8 nM. The IC50 (CXCR3) was 451 nM.
For `CCOc1ncc(-c2nc(C(F)(F)F)sc2N2CCN(C(=O)Cn3cnc(C(F)(F)F)n3)[C@H](CO)C2)cn1` [Example 6, 1-{(S)-4-[4-(2-Ethoxy-pyrimidin-5-yl)-2-trifluoromethyl-thiazol-5-yl]-2-hydroxymethyl-piperazin-1-yl}-2-(3-trifluoromethyl-[1,2,4]triazol-1-yl)-ethanone], the “% block” value (hERG K channel; concentration 300 nM) was 13%, the “% block” value (hERG K channel; concentration 3000 nM) was 23% and the IC50 (human CXCR3A) was 4.6 nM. The IC50 (CXCR3) was 778 nM.
